Results from the Kinase Knowledgebase extract (Sharma et al. 2016).

Tests used:
[1] = target: PIK3CG (human) (UniProt P48736); test: Inhibition of PIK3CG Kinase Activity
[2] = target: PIK3CA (human) (UniProt P42336); test: Inhibition of PIK3CA Kinase Activity
[3] = target: PIK3CB (Human) (UniProt P42338); test: Inhibition of PIK3CB Kinase Activity
[4] = target: PIK3CD (Human) (UniProt O00329); test: Inhibition of PIK3CD Kinase Activity
PIK3CD (Human), sequence (O00329 whole entry, looked up): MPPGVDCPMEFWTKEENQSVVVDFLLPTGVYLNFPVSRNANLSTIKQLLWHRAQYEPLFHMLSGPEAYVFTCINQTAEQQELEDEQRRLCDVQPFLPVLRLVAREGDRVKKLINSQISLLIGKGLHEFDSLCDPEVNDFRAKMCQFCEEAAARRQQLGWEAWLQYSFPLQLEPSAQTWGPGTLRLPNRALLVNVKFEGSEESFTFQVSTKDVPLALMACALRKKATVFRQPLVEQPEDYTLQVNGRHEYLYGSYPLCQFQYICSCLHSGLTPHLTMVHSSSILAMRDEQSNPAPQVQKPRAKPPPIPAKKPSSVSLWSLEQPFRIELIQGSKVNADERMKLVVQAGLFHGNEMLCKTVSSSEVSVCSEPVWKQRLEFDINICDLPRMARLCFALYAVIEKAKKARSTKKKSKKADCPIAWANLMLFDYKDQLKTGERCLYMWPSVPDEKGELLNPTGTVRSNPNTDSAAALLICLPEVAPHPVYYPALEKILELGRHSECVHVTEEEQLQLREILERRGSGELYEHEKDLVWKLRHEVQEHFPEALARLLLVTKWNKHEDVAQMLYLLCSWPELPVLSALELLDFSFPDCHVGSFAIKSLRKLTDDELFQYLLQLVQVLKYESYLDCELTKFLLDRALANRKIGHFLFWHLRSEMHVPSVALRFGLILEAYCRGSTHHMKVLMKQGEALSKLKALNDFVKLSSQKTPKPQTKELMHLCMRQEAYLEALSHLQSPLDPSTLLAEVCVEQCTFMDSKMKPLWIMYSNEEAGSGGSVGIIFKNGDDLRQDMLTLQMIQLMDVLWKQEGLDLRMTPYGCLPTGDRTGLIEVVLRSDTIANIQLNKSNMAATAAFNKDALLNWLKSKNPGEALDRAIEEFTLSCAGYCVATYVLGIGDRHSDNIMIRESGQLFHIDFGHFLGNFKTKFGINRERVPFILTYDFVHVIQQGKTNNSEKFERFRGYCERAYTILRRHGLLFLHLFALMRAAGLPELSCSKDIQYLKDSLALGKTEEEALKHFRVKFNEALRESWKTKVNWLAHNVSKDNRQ

PIK3CA (human), sequence (P42336 whole entry, looked up): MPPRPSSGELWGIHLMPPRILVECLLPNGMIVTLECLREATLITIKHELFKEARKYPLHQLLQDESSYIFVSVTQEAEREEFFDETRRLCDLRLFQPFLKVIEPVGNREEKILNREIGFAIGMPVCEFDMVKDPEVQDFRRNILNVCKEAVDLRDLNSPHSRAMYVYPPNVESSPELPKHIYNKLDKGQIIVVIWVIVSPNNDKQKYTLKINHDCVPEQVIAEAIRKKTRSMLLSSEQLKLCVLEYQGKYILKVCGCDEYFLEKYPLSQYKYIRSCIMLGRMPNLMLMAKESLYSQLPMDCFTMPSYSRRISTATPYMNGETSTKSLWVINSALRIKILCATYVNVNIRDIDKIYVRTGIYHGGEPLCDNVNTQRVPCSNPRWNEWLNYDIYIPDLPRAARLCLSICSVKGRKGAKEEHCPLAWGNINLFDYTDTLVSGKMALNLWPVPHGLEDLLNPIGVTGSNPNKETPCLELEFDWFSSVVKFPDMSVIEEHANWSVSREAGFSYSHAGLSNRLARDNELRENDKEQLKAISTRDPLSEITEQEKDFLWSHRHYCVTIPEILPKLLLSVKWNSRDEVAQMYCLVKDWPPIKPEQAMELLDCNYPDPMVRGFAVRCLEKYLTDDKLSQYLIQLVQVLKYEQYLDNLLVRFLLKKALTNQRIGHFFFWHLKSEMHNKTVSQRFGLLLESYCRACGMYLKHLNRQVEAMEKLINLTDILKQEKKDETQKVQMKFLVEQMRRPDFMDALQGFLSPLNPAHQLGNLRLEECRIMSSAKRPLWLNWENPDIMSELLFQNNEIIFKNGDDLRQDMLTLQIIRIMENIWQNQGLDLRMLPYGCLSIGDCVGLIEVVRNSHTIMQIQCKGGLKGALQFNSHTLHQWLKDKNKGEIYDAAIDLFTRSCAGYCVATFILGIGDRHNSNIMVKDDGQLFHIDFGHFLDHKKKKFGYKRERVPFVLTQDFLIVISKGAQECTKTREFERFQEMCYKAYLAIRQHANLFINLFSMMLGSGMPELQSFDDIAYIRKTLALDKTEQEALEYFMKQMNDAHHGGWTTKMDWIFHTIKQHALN
PIK3CG (human), sequence (P48736 whole entry, looked up): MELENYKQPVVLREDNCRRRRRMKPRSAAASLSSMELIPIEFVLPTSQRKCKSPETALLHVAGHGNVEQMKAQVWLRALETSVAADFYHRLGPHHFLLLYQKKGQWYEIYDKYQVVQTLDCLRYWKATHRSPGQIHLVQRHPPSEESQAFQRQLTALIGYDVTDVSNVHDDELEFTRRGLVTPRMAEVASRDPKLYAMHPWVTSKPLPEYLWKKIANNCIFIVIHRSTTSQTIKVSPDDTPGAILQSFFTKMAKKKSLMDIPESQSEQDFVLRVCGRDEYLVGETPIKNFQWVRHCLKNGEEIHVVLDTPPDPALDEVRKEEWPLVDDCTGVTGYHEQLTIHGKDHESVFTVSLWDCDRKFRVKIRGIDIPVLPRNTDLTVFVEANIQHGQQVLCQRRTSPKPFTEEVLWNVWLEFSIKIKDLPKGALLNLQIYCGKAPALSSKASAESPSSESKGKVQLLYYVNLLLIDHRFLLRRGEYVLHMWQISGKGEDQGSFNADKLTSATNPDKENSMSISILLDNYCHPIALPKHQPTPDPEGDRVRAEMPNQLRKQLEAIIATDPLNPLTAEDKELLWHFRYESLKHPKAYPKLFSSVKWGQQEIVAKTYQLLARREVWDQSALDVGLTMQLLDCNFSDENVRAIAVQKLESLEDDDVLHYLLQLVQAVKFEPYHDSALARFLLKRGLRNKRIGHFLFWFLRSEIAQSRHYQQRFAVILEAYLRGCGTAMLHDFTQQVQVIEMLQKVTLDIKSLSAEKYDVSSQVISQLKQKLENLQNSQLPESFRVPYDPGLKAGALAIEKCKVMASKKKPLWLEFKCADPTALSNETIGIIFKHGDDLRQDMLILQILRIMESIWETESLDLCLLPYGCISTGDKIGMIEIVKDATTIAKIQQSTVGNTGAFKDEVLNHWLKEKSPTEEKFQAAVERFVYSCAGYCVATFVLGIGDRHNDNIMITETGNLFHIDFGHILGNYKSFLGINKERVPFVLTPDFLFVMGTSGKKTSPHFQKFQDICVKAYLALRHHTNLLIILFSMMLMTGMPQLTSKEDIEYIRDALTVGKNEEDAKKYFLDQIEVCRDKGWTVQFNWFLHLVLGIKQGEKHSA
PIK3CB (Human), sequence (P42338 whole entry, looked up): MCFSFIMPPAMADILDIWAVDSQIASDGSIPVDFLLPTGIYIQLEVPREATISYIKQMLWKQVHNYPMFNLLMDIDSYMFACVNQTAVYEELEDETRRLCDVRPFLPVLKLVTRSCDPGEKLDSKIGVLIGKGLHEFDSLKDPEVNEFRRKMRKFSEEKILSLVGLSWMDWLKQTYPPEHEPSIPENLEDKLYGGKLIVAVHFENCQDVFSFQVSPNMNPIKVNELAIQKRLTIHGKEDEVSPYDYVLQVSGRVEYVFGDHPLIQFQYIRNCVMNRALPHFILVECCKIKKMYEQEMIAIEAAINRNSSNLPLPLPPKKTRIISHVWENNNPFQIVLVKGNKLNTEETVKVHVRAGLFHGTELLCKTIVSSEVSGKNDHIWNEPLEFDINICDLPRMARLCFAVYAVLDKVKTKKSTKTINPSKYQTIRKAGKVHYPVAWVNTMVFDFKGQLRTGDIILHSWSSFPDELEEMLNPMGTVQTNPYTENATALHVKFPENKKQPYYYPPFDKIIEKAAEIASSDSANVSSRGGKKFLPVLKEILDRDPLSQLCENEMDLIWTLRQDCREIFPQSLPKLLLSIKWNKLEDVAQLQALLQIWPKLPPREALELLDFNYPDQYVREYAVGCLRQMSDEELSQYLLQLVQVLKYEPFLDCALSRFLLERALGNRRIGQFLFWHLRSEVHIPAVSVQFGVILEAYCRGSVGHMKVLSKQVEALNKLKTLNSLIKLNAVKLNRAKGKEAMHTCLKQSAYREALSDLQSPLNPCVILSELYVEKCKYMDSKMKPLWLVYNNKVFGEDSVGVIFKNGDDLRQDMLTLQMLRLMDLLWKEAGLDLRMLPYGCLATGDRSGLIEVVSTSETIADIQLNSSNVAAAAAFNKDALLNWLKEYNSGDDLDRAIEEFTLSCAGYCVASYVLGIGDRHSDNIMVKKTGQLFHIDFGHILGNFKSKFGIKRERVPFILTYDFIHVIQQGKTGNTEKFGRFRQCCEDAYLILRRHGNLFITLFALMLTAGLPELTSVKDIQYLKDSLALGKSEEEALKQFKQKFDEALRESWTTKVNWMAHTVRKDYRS

IC50 [1] [nM]	IC50 [2] [nM]	IC50 [3] [nM]	IC50 [4] [nM]	SMILES
< 1000	< 1000	< 1000	< 1000	CN1CCN(C(=O)N2CCC(n3ncc4c(-c5cnc(N)nc5)nc(N5CCOCC5)nc43)CC2)CC1
< 1000	< 1000	< 1000	< 1000	Nc1ncc(-c2nc(N3CCOCC3)nc3c2cnn3C2CCOCC2)cn1

SMILES	IC50 [1] [nM]	IC50 [2] [nM]	IC50 [3] [nM]	IC50 [4] [nM]
CC(C)(O)Cn1ncc2c(-c3cnc(N)nc3)nc(N3CCOCC3)nc21	< 1000	< 1000	< 1000	< 1000
